Reference: US10745434B2, “Uridine phosphoramide prodrug, preparation method therefor, and medicinal uses thereof” (priority 2016, dated 2020)
pEC50: −log10 of the molar value. Read-outs that look alike come from different tables or passages of the source.

Tests used:
HCV GT1b replicons = test: Anti-HCV replicon activity, HCV GT1b stable transfection replicon cell line (luciferase); assay type: cell-based, hepatitis C virus (HCV) genotype (GT) 1b
Method: (§1) A hepatitis C virus (HCV) genotype (GT) 1b stable transfection replicon cell line system was used to determine the inhibitory activity of the compounds to the HCV GT1b replicons. In this experiment, the compound 06a (GS-7977) was used as a control compound to monitor the experimental quality.
(§2) [drawing 4] 2. Compound dilution: 20 mM mother liquor was prepared by using 100% DMSO, and the compound DMSO mother liquor was diluted and added to a 96-well experiment plate. The final concentration of the DMSO was 0.5%. In in-vitro anti-HCV activity experiments and cytotoxicity experiments, all compounds had the initial concentration of 20 microns, and were diluted by 5 times of dilution. The final concentration of the DMSO of 6 concentrations were 0.5%. 3. Cell treatment: HCV-1b replicon sub-cells were added to the above 96-well cell plate (8,000 cells/well), and then placed into an incubator of 37 DEG C. and 5% CO2 for culturing for 3 days. 4. Cell activity detection: a cell growth fluorescent titration detection reagent was added to each well; after the cells were cultured for 1 hour in the incubator of 37 DEG C. and 5% CO2, a spectrophotometer detection system Envision was used to detect a Fluorescence signal value. The original data, i.e, relative fluorescence units (RFUs), was used for the calculation of the cell toxicity of the compounds. 5. Anti-HCV replicon activity detection: a luciferase light-emitting substrate bright-GLO was added to each well, and a chemiluminescence detection system Envision was used for detecting a Luminescence signal value in 5 minutes. The original data, i.e., relative light units (RLUs), was used for the calculation of the inhibitory activity of the compounds. 6. Data processing: the RFUs obtained in step 1.3 were processed into a cell activity percentage by using the following formula: […]
The RLUs obtained in step 1.4 were processed into a inhibition percentage by using the following formula:
[formula] *CPD: signal values of compound wells HPE (high percent effect): 100% effective action control well signal value, with only DMEM culture solution in the wells; The ZPE (zero percent effect): noneffective control well signal value, with 0.5% DMSO to replace the compound.
(§3) The cell activity percentage and the inhibition percentage were respectively imported into GraphPad Prism software for data processing to obtain curves corresponding to the compounds and their values of cytotoxicity (CC50) and inhibitory activity (ECD50) to the HCV replicons.

[1] = Simulated gastric liquid stability; assay type: in vitro ADME; conditions: test concentration 10 μM
Human plasma stability = assay type: in vitro ADME; conditions: test concentration 2 μM
Method: 3. Human Plasma Stability (Test Concentration: 2 μM), See Table 4.

[2] = tested on: HCV-1b replicon sub-cells; test: Cytotoxicity in HCV-1b replicon cells (cell growth fluorescent titration); assay type: cell-based; conditions: HCV GT1b replicon cells, 3 days
Method: as §1, §2, §3

[3] = Simulated intestinal fluid stability; assay type: in vitro ADME; conditions: test concentration 10 μM
Method: 2. Simulated Intestinal Fluid Stability (Test Concentration: 10 μM), See Table 3: […]

Human liver S9 stability = assay type: in vitro ADME; conditions: human liver S9, test concentration 1 μM
Method: 4. Human Liver S9 Stability Parameters (Test Concentration: 1 μM), See Table 5.

[4] = Rat in-vivo metabolism and tissue distribution: metabolite TSL1100 in liver after intragastric administration; set-up: species or system SD rats; conditions: rat PO 50 mg/kg
Method: 18 SD rats (male, 6-9 weeks old, purchased from Vital River Animal center) were divided into 6 groups randomly, 3 rats in each group, fasted for 12 hours first before administration, freely fed with water during the fasting period. After the administration is carried out for 4 hours, the fasting was ended. 50 mg compound was precisely weighed on a balance, and 95% (0.5% of cd))/5% solutol aqueous solution was added and uniformly mixed, and subjected to ultrasonic treatment for later use. The drug delivery dose was 50 mg/kg; the drug delivery concentration was […]; and the drug delivery volume was […].
The sample collection scheme: taking blood and liver tissues after carrying out intragastric administration on rats for 1 h, 2 h, 3 h, 6 h, 12 h and 24 h.
The liver tissue sample treatment method: taking a rat tissue sample in a plastic EP tube, and adding 5 times (w:v) 1.75 mL MeOH and 5 μL 50% KOH aqueous solution together with 0.75 mL 268 mM EDTA solution to prepare a solution, uniformly mixing and taking 60 μL sample, adding a 240 μL internal standard solution for mixing, carrying out vortex oscillation for 2 minutes, and centrifuging for 10 minutes (13000 rpm and 4 DEG C.), taking 30 μL of supernate, adding 30 μL of water, carrying out vortex mixing, centrifuging at 4 DEG C., and then taking 5 μL supernate for […] analysis.
LC-MS/MS-O (API 4000) liquid mass spectrometer and chromatographic column are adopted: ACQUITY UPLC BEH C18 130 Å 1.7 μm 2.1×50 mm the composition com: and tomitamide was adopted as an internal standard compound, gradient elution analysis is carried out after the sample is fed into the sample, and the internal standard is recorded respectively, the retention time and the peak area of the to-be-tested compound and the metabolite TSL 1100, the software phoenix winnonlin 6.2. The method is analyzed by an srms quantitative detection method.

[5] = Cytotoxicity in HCV-1b replicon cells (cell growth fluorescent titration); assay type: cell-based; conditions: HCV genotype 1b stably transfected replicon cells, HCV GT1b replicon cells
Method: as §1, §2, §3

[6] = HCV GT1b replicons, 3 days, maximum test concentration 20 μM, read-out: EC50 anti-HCV replicon activity

Structure (SMILES)	pEC50 (HCV GT1b replicons; [6])	CC50 [2] [µM]	% 0 h residual percentage [3] [%]	% 1 h residual percentage [3] [%]	% 2 h residual percentage [3] [%]	% 6 h residual percentage [3] [%]	% 24 h residual percentage [3] [%]	CLlint(s9) (Human liver S9 stability) [µL/min/mg]	Remaining % (NCF = 1 h) (Human liver S9 stability) [%]	Remaining % (T = 1 h) (Human liver S9 stability) [%]	CLlint(s9) (Human liver S9 stability; scaled per kg) [mL/min/kg]	half-life at 1 μM (Human liver S9 stability) [min]	further results
CC(C)OC(=O)C(C)NP(=O)(OCc1ccccc1)OCC1OC(n2ccc(=O)[nH]c2=O)C(C)(F)C1O (mixture of isomers) [Compound 01]	5.21	> 20	100	1.69	0.08	0.00	0.00	7.2	67.4	56.2	0.0252		% 0 h residual percentage [1]: 100%; % 1 h residual percentage [1]: 96.81%; % 2 h residual percentage [1]: 105.99%; % 6 h residual percentage [1]: 100.76%; % 24 h residual percentage [1]: 71.32%; % 0 min residual percentage (Human plasma stability): 100%; % 10 min residual percentage (Human plasma stability): 98.9%; % 30 min residual percentage (Human plasma stability): 81.7%; % 60 min residual percentage (Human plasma stability): 80.9%; % 120 min residual percentage (Human plasma stability): 74.9%; T1/2 (Human liver S9 stability): 96.6 min
CC(C)OC(=O)[C@H](C)NP(=O)(OCc1ccccc1)OC[C@H]1O[C@@H](n2ccc(=O)[nH]c2=O)[C@](C)(F)[C@@H]1O (single isomer, unassigned) [Compound 01a]	6.52	> 20											AUCExtra [4]: 4.74%; AUMCExtra [4]: 18.9%; Tlast [4]: 24.0 h
CC(C)OC(=O)[C@H](C)NP(=O)(OCc1ccccc1)OC[C@H]1O[C@@H](n2ccc(=O)[nH]c2=O)[C@](C)(F)[C@@H]1O (single isomer, unassigned) [Compound 01b]	5.04	> 20											AUCExtra [4]: 6.61%; AUMCExtra [4]: 19.8%; Tlast [4]: 12.0 h
Cc1ccccc1COP(=O)(N[C@@H](C)C(=O)OC(C)C)OC[C@H]1O[C@@H](n2ccc(=O)[nH]c2=O)[C@](C)(F)[C@@H]1O (single isomer, unassigned) [Unresolved enantiomer 02 of patent compounds in 2013]			100	0.63	0.08	0.00	0.00	72.6	64.7	1.1	0.2556	9.5	pEC50 (HCV GT1b replicons; Hepatitis C virus, GT1B, 72 h, read-out: EC50 anti-HCV replicon activity, HCV GT1b replicons, 3 days, maximum test concentration 20 μM): 4.70 to 5.00; pEC50 (HCV GT1b replicons; read-out: EC50 anti-HCV replicon activity, HCV GT1b replicons, 3 days, maximum test concentration 20 μM): 4.75; % 0 h residual percentage [1]: 100%; % 1 h residual percentage [1]: 82.70%; % 2 h residual percentage [1]: 82.45%; % 6 h residual percentage [1]: 74.80%; % 24 h residual percentage [1]: 41.56%; % 0 min residual percentage (Human plasma stability): 100%; % 10 min residual percentage (Human plasma stability): 73.3%; % 30 min residual percentage (Human plasma stability): 69.5%; % 60 min residual percentage (Human plasma stability): 62.8%; % 120 min residual percentage (Human plasma stability): 58.8%; CC50 at 3 days [5]: > 20 µM
CCOc1ccc2ccc(=O)oc2c1 [7-Ethoxycumarin]								194.2	103.3	0.0	0.6835	3.6	
O=c1ccc2ccc(O)cc2o1 [7-Hydroxycoumarin]								7.2	67.4	56.2	0.0252	96.6	
O=C(O)CCCc1ccc(N(CCCl)CCCl)cc1 [Chlorambucil]			100	43.83	3.91	0.00	0.00						
